This note sets out measurements from patent publication US9663573B2, “Methods of treating liver conditions using Notch2 antagonists” (GENENTECH, INC., priority 2011, dated 2017).

For test [1], the system named is liver progenitor cells (oval cells). The test can be described thus: Primary oval cell culture on Sw-3T3 feeder fibroblasts: colony formation and proliferation. It is filed as cell-based, mouse. The text has this:
To elucidate the role of Notch signaling in liver regeneration, an in vitro culture system was developed. Cell cultures were established by culturing primary oval cells on Sw-3T3 fibroblasts (ATCC), arrested with Mitomycin C (Sigma), in High Glucose Dulbecco's Modified Eagle Medium (DMEM; Invitrogen) supplemented with 15% Fetal Calf Serum (Sigma), non-essential amino acids (Invitrogen), Glutamax (Invitrogen), and ITS (Invitrogen).

For another test, the target named is T1, Notch2 (Mus musculus, UniProt O35516).
T1 construct: Cell cultures were established by culturing primary oval cells on Sw-3T3 fibroblasts; endogenous in cells; host or cells: primary mouse liver oval (progenitor) cells
T1 sequence (O35516 26-2473): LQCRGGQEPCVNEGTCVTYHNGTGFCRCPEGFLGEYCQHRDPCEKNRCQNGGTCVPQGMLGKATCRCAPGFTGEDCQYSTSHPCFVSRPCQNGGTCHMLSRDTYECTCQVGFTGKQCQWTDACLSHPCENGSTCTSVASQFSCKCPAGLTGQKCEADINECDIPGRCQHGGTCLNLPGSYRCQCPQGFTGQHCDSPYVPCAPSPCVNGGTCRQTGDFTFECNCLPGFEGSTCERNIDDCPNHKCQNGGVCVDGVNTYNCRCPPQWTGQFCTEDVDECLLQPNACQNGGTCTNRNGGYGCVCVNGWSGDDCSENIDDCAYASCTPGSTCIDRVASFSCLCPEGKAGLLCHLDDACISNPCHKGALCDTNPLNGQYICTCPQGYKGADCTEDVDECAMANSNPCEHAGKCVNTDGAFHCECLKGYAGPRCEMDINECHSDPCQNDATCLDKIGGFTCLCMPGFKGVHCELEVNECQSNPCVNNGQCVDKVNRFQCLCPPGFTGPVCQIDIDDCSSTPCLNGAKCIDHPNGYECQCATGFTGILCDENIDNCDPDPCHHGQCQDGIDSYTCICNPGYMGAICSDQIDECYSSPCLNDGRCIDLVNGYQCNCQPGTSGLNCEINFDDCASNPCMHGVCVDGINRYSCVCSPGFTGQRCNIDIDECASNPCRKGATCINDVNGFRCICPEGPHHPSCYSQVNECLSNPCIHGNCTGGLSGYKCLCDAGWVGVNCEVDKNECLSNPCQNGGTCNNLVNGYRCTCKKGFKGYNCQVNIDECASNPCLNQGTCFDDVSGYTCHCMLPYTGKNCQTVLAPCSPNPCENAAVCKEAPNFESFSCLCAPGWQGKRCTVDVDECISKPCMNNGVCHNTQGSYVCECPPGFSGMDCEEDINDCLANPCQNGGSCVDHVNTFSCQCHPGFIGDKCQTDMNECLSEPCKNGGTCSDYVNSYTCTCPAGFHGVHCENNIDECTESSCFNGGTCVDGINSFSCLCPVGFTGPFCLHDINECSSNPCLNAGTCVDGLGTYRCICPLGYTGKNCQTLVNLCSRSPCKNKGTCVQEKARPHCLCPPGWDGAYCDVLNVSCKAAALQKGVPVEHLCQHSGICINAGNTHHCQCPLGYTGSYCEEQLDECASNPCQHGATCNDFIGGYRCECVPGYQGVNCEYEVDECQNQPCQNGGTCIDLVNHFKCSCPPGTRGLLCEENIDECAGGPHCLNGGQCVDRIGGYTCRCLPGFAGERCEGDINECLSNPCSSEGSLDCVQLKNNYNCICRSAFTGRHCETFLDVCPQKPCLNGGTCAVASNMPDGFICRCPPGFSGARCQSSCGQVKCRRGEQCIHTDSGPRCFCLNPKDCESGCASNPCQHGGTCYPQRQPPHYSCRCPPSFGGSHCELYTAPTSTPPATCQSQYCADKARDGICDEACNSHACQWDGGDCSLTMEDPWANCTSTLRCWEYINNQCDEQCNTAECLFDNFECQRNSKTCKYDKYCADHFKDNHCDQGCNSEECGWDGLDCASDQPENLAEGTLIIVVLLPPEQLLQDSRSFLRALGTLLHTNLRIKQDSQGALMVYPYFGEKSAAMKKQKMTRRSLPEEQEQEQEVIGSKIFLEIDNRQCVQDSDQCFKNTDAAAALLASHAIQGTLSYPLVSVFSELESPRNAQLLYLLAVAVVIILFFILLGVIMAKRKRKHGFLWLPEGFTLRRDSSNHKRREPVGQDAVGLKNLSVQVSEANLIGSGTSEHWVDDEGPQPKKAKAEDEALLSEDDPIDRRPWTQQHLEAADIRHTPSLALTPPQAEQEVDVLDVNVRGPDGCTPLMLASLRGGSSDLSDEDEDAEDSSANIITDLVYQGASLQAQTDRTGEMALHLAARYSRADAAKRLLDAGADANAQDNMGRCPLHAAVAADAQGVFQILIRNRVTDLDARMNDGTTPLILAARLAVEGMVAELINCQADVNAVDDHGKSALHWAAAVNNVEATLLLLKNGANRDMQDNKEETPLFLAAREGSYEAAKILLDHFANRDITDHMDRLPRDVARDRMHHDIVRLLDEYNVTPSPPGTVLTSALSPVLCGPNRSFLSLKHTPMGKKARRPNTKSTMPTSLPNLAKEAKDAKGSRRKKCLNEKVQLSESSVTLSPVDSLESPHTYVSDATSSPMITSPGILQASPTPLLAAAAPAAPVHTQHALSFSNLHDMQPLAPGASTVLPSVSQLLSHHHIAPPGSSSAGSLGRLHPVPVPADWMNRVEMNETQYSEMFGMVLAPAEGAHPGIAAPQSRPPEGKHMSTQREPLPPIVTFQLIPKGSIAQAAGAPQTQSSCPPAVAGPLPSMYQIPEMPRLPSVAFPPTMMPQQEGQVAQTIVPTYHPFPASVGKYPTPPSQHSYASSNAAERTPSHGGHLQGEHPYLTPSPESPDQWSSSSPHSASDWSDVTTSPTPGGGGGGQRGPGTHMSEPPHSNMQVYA
As to the kind of experiment: Notch2 signaling in cultured oval cells (activated Notch2 ICD by Western blot, Hes1 expression). As to conditions: FIG. 2H. It is filed as cell-based. The text has this: The anti-activated Notch2 antibody (clone 40-2-7) was generated against the peptide VIMAKRKRKHGSLW, corresponding to amino acids 1697-1710 of the human Notch2 protein sequence (SEQ ID NO:73), coupled to KLH (YenZym Custom Antibodies, LLC). Splenocytes from a rabbit producing an antibody with the appropriate specificity were used to generate hybridomas (Epitomics, Inc.). Clone 40-2-7 was identified by screening the resulting rabbit monoclonal antibodies by immunoblotting and immunohistochemistry. This antibody recognizes both human (FIG. 7B, left panel) and mouse (FIG. 7B, right panel) active Notch2 at endogenous levels.
Progenitors cultured in the culture system maintained growth (FIG. 2A) and formed colonies consisting of small, tightly packed cells with a high nuclear-cytoplasmic ratio and a distinct raised edge (FIG. 2A, left panel). The cells within these colonies were uniformly EpCAM positive (FIG. 2A, right panel). […] Activated Notch2 was detected by Western blot analysis using a rabbit monoclonal antibody raised against the S3 cleaved form of the human Notch2 protein (FIG. 7B). […]
Notch2 signaling was active in cultured oval cells, as transcriptionally active Notch2 intracellular domain (ICD) could be detected using an antibody specific to the γ-secretase cleaved form of this receptor (FIG. 2H). […]

As for `C[C@H](NC(=O)Cc1cc(F)cc(F)c1)C(=O)N[C@H](C(=O)OC(C)(C)C)c1ccccc1` [DAPT, N—[N-(3,5-difluorophenacetyl)-1-alanyl]-S-phenylglycine t-butyl ester], the progenitor cell proliferation entry in test [1] (FIG. 2D) is recorded as “small increase”. Besides, the colony formation frequency result in test [1] (plated CD45 negative, non-parenchymal cells, without DAPT approximately 1 colony per 100,000) is recorded as “approximately 1 colony per 10,000 cells plated”. Further, the “enhancement of colony formation” value in test [1] (primary cultures treated with DAPT vs untreated, FIG. 2B) was “approximately ten-fold”. The “appearance of gamma-secretase cleaved (active) form of Notch2 (ICD)” value on Notch2 is “absent”.
